Measured values: patent publication US10596172B2 (Celgene CAR LLC, priority 2008, dated 2020)
Read-outs that look alike come from different tables or passages of the source.

Test system: B cell lymphoma cell lines
Experiment: B cell lymphoma proliferation assay
Format: cell-based
[1] = DHL4 B cell lymphoma cell line, read-out: EC50 (μM) DHL4
[2] = Homo sapiens, DOHH-2, DOHH2 B cell lymphoma cell line, read-out: EC50 (μM) DOHH2
[3] = Homo sapiens, WSUDLCL2, WSU-DLCL2 B cell lymphoma cell line, read-out: EC50 (μM) WSU-DLCL2

Row | SMILES | EC50 [1] [µM] | EC50 [2] [µM] | EC50 [3] [µM]
1 | C=CC(=O)Nc1cccc(Nc2nc(Nc3ccc4c(cnn4C)c3)ncc2F)c1 [Compound I-155] | 1 to 10 | 1 to 10 | 1 to 10
2 | C=CC(=O)Nc1cccc(Nc2nc(Nc3cccc(OCCCn4ccnc4)c3)ncc2F)c1 [Compound I-204, N-(3-(2-(3-(3-(1H-imidazol-1-yl)propoxy)phenylamino)-5-fluoropyrimidin-4-ylamino)phenyl)acrylamide] |  | 1 to 10 | 1 to 10
3 | COCCOc1ccc(Nc2ncc(F)c(Nc3cccc(NC(=O)/C=C/CN4CC[C@@H](O)C4)c3)n2)cc1 [Compound I-89, (R,E)-N-(3-(5-fluoro-2-(4-(2-methoxyethoxy)phenylamino)pyrimidin-4-ylamino)phenyl)-4-(3-hydroxypyrrolidin-1-yl)but-2-enamide] |  | 1 to 10 | 
4 | C=CC(=O)N1CCOc2ccc(Nc3nc(Nc4ccc5c(c4)CC(=O)N5)ncc3C(C)=O)cc21 [Compound I-129, 5-[5-Acetyl-4-(4-acryloyl-3,4-dihydro-2H-benzo[1,4]oxazin-6-ylamino)-pyrimidin-2-ylamino]-1,3-dihydro-indol-2-one] |  | 1 to 10 | 
5 | C=CC(=O)Nc1cccc(Nc2nc(Nc3ccc(OC)nc3)ncc2C#N)c1 [Compound I-173, N-(3-(5-cyano-2-(6-methoxypyridin-3-ylamino)pyrimidin-4-ylamino)phenyl)acrylamide] |  | 1 to 10 | 
6 | C=CC(=O)Nc1cccc(Nc2nc(Nc3ccc(OCC4CCN(C)CC4)nc3)ncc2F)c1 [Compound I-78, N-(3-(5-fluoro-2-(6-((1-methylpiperidin-4-yl)methoxy)pyridin-3-ylamino)pyrimidin-4-ylamino)phenyl)acrylamide] |  | 0.1 to 1 | 
7 | C=CC(=O)Nc1cccc(Nc2nc(Nc3ccc(OCCOC)nc3)ncc2C(C)=O)c1 [Compound I-122, N-(3-{5-Acetyl-2-[6-(2-methoxy-ethoxy)-pyridin-3-ylamino]-pyrimidin-4-ylamino}-phenyl)-acrylamide] |  | 1 to 10 | 
8 | C=CC(=O)Nc1cccc(Nc2nc(Nc3ccc(OCCOC)cc3)ncc2C(C)=O)c1 [Compound I-124, N-(3-{5-Acetyl-2-[4-(2-methoxy-ethoxy)-phenylamino]-pyrimidin-4-ylamino}-phenyl)-acrylamide] |  | 1 to 10 | 
9 | C=CC(=O)Nc1cccc(Nc2nc(Nc3ccc(OC)nc3)ncc2OC)c1 [Compound I-192, N-(3-(5-methoxy-2-(6-methoxypyridin-3-ylamino)pyrimidin-4-ylamino)phenyl)acrylamide] |  | 1 to 10 | > 10
10 | C=CC(=O)Nc1cccc(N(C(=O)C=C)c2nc(Nc3ccc(OC)nc3)ncc2C#N)c1 [Compound I-171, N-(3-acrylamidophenyl)-N-(5-cyano-2-(6-methoxypyridin-3-ylamino)pyrimidin-4-yl)acrylamide] |  | 1 to 10 | 
11 | C=CC(=O)Nc1cccc(Nc2nc(Nc3ccc(OC)c(OC)c3)ncc2F)c1 [Compound I-134, 4-(3acrylamidophenylamino)-5-fluoro-2-(3,4-dimethoxyphenylamino)-pyrimidine] | < 0.1 | 0.1 to 1 | 
12 | C=CC(=O)Nc1cccc(Oc2nc(Nc3cccc(OCC4CCCN(C)C4)c3)ncc2F)c1 (stereo not drawn) [Compound I-81, N-(3-(5-fluoro-2-(3-((1-methylpiperidin-3-yl)methoxy)phenylamino)pyrimidin-4-yloxy)phenyl)acrylamide] |  | 0.1 to 1 | 
13 | C=CC(=O)Nc1cccc(Nc2nc(Nc3cccc(OCCCS(C)(=O)=O)c3)ncc2F)c1 [Compound I-138, 4-(3-acrylamidophenylamino)-5-fluoro-2-(3-(3-(methylsulfonyl)propoxy)phenylamino)-pyrimidine] | 1 to 10 | 1 to 10 | 
14 | C=CC(=O)Nc1cccc(Nc2nc(Nc3cc(OC)c(OC)c(OC)c3)ncc2F)c1 [Compound I-133, 4-(3-acrylamidophenylamino)-5-fluoro-2-(3,4,5-trimethoxyphenylamino)-pyrimidine] | < 0.1 | 0.1 to 1 | 
